#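 1) Cells in 96-well plates. 2) Compound, 48 h, 5 concentrations. 3) Linear interpolation between surrounding doses. 4) Unreached endpoint = highest concentration. GI50 is the concentration that inhibits growth by half. Definition used: TGI = concentration required for complete inhibition of growth.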
# How the values were obtained:
# Test in all cases: inhibition of tumour cell growth, NCI panel, 48 h
# RPMI-8226 leukemia = system: RPMI-8226 leukemia
# K-562 leukemia = system: K-562 leukemia
# COLO 205 colon = system: COLO 205 colon
# NCI-H522 lung = system: NCI-H522 lung
# PC-3 prostate = system: PC-3 prostate
# 786-0 renal = system: 786-0 renal
# OVCAR-8 ovarian = system: OVCAR-8 ovarian
# SK-MEL-2 melanoma = system: SK-MEL-2 melanoma
# NCI-H226 lung = system: NCI-H226 lung
# CCRF-CEM leukemia = system: CCRF-CEM leukemia
Compound,GI50 (RPMI-8226 leukemia),TGI (RPMI-8226 leukemia),GI50 (K-562 leukemia),TGI (K-562 leukemia),GI50 (COLO 205 colon),TGI (COLO 205 colon),GI50 (NCI-H522 lung),TGI (NCI-H522 lung),GI50 (PC-3 prostate),TGI (PC-3 prostate),GI50 (786-0 renal),TGI (786-0 renal),GI50 (OVCAR-8 ovarian),TGI (OVCAR-8 ovarian),GI50 (SK-MEL-2 melanoma),TGI (SK-MEL-2 melanoma),GI50 (NCI-H226 lung),TGI (NCI-H226 lung),GI50 (CCRF-CEM leukemia),TGI (CCRF-CEM leukemia)
CCN1CCN(c2nc(C)cc(N(CCNc3ccnc4cc(Cl)ccc34)Cc3ccc4c(c3)OCO4)n2)CC1,1.31 µM,3.76 µM,0.913 µM,2.76 µM,1.63 µM,3.27 µM,1.95 µM,4.06 µM,3.22 µM,13.4 µM,1.54 µM,3.08 µM,2.69 µM,7.9 µM,1.98 µM,3.85 µM,15 µM,33.6 µM,2.12 µM,5.88 µM
COc1ccc([C@H]2[C@@H](F)C(=O)N2c2cc(OC)c(OC)c(OC)c2)cc1F,0.055 µM,37.3 µM,0.0383 µM,> 100 µM,0.156 µM,0.503 µM,0.0383 µM,> 100 µM,0.042 µM,> 100 µM,0.0462 µM,15.1 µM,0.368 µM,> 100 µM,0.303 µM,> 100 µM,22.2 µM,> 100 µM,0.0471 µM,> 100 µM
NS(=O)(=O)c1cc(Br)c(N=Nc2ccc(O)c3ncccc23)c(Br)c1,,> 100 µM,,> 100 µM,,> 100 µM,,> 100 µM,,> 100 µM,,> 100 µM,,> 100 µM,,> 100 µM,,> 100 µM,,6.74 µM
OCc1ccc(-c2ccc(-c3ccc(CO)s3)o2)s1,,62.3 µM,,38.3 µM,,3.01 µM,,> 100 µM,,> 100 µM,,> 85.8 µM,,61.4 µM,,89.2 µM,,0.145 µM,,72.2 µM
Nc1ncnc2n[nH]c(Nc3ccc(F)cc3)c12,15.1 µM,> 100 µM,15.6 µM,> 100 µM,17.3 µM,66.1 µM,29.8 µM,> 100 µM,20.8 µM,> 100 µM,19.3 µM,> 100 µM,22.5 µM,> 100 µM,14 µM,> 100 µM,51 µM,> 100 µM,18.4 µM,72.4 µM
O=C(CCc1nnc2sc(-c3ccc(Cl)cc3Cl)nn12)c1nc2ncccc2[nH]1,1.8 µM,7.59 µM,2.44 µM,> 100 µM,1.93 µM,4.2 µM,1.9 µM,4.49 µM,1.63 µM,3.63 µM,1.81 µM,3.53 µM,3.44 µM,> 100 µM,2.59 µM,7.27 µM,1.7 µM,3.66 µM,2.68 µM,9 µM
NC1(C(=O)OCc2ccccc2)CCCC1,,68.2 µM,,59.6 µM,,76.7 µM,,42.6 µM,,> 100 µM,,42.8 µM,,37.4 µM,,40.2 µM,,91.7 µM,,> 100 µM
C=C1C(=O)O[C@H]2[C@H]1CC/C(COC(=O)c1c[nH]c3ccccc13)=C\CC[C@@]1(C)O[C@@H]21,0.0404 µM,0.281 µM,0.279 µM,1.62 µM,0.244 µM,0.663 µM,0.194 µM,0.412 µM,0.384 µM,2.03 µM,0.326 µM,1.13 µM,0.282 µM,1.03 µM,0.239 µM,0.612 µM,0.445 µM,1.96 µM,0.058 µM,0.972 µM
O=C(/C=C/c1ccc(Cl)cc1)c1ccc(Nc2ccnc3cc(Cl)ccc23)cc1,2.08 µM,> 30.7 µM,4.98 µM,> 100 µM,31.9 µM,> 100 µM,> 100 µM,> 100 µM,> 53.6 µM,> 100 µM,38.1 µM,> 100 µM,> 100 µM,> 100 µM,> 100 µM,> 100 µM,> 100 µM,> 100 µM,7.3 µM,> 100 µM
COc1c(Cl)c(=O)oc2ccc(Cl)cc12,,> 100 µM,,> 100 µM,,> 100 µM,,> 100 µM,,> 100 µM,,> 100 µM,,> 100 µM,,> 100 µM,,> 100 µM,,> 100 µM
CC(C)(C)OC(=O)N[C@H]1CC2(C=C(Cl)C(=O)C(Cl)=C2)OC1=O,,19.8 µM,,7.41 µM,,14.9 µM,,7.18 µM,,32.1 µM,,28.6 µM,,34.5 µM,,41.7 µM,,> 81.6 µM,,5.4 µM
Cn1cnc([N+](=O)[O-])c1S(=O)(=O)Oc1cccc2ccccc12,2.68 µM,6.69 µM,1.6 µM,8.63 µM,1.06 µM,2.64 µM,0.271 µM,1.18 µM,8.43 µM,44.4 µM,14.4 µM,29.3 µM,4.62 µM,18.7 µM,4.42 µM,20 µM,3.79 µM,31 µM,1.32 µM,9.3 µM
CCOC(=O)c1cc2nc3ccccc3c(=O)n2c2ccccc12,,> 10 µM,,> 10 µM,,> 10 µM,,> 10 µM,,> 10 µM,,> 10 µM,,> 10 µM,,> 10 µM,,> 10 µM,,> 10 µM
Cc1cc2c(cc1Cl)SC(N(N(C)C)S(=O)(=O)c1ccc(Cl)cc1)=NS2(=O)=O,12.5 µM,> 100 µM,31.8 µM,> 100 µM,44 µM,> 100 µM,11.1 µM,43.9 µM,22.4 µM,> 100 µM,34.8 µM,> 100 µM,36.6 µM,> 100 µM,20.1 µM,66.6 µM,30.5 µM,89.9 µM,3.29 µM,> 100 µM
O=S(=O)(CCn1c(Sc2ccccc2)c(Sc2ccccc2)c2ccccc21)c1ccccc1,,> 100 µM,,> 100 µM,,> 100 µM,,> 100 µM,,> 100 µM,,> 100 µM,,> 100 µM,,> 100 µM,,> 100 µM,,> 100 µM
COc1cc(C2c3cc4c(cc3OC(C)(O)C2C)OCO4)cc(OC)c1OC (centres undefined),,0.721 µM,,11.9 µM,,> 100 µM,,1.19 µM,,> 100 µM,,> 100 µM,,> 100 µM,,,,13.5 µM,,16.6 µM
